US8143261B2, “Thiazolo (4,5-D) pyrimidine compounds” (AstraZeneca AB, priority 1999, dated 2012)

| Structure (SMILES) | melting point |
| --- | --- |
| CC(COCCO)Nc1nc(SCc2cccc(F)c2F)nc2[nH]c(=O)sc12 (racemic) [Example 11, (+/−)-5-[[(2,3-difluorophenyl)methyl]thio]-7-[[2-(2-hydroxyethoxy)-1-methylethyl]amino]thiazolo[4,5-d]pyrimidin-2(3H)-one] | 221 to 222 °C |
| CC(C)(CO)Nc1nc(SCc2ccccc2)nc2[nH]c(=O)sc12 [Example 1, 7-[(2-Hydroxy-1,1-dimethylethyl)amino]-5-[(phenylmethyl)thio]thiazolo[4,5-d]pyrimidin-2(3H)-one] | 207 to 208 °C |
| NCCNc1nc(SCc2cccc(F)c2F)nc2[nH]c(=O)sc12 [Example 8, 7-[(2-aminoethyl)amino]-5-[[(2,3-difluorophenyl)methyl]thio]thiazolo[4,5-d]pyrimidin-2(3H)-one] | 215 to 216 °C |
| CS(=O)(=O)NCCNc1nc(SCc2cccc(F)c2F)nc2[nH]c(=O)sc12 [Example 10, N-[2-[[5-[[(2,3-difluorophenyl)methyl]thio]-2,3-dihydro-2-oxothiazolo[4,5-d]pyrimidin-7-yl]amino]ethyl]methanesulfonamide] | 225 to 226 °C |
| O=c1[nH]c2nc(SCc3cccc(F)c3F)nc(N[C@@H]3CNC[C@H]3O)c2s1 [Example 18, 5-[[(2,3-Difluorophenyl)methyl]thio]-7-[[(3R,4R)-4-hydroxypyrrolidin-3-yl]amino]-thiazolo[4,5-d]pyrimidin-2(3H)-one] | 270 °C (dec.) |
| Cc1nc(CSc2nc(NC(CO)CO)c3sc(=O)[nH]c3n2)cs1 [Example 21, 7-[[2-Hydroxy-1-(hydroxymethyl)ethyl]amino]-5-[[(2-methyl-4-thiazolyl)methyl]thio]thiazolo[4,5-d]pyrimidin-2(3H)-one] | 239 to 243 °C |
| Cc1nc(CSc2nc(NC(C)(C)CO)c3sc(=O)[nH]c3n2)cs1 [Example 22, 7-[(2-Hydroxy-1,1-dimethylethyl)amino]-5-[[(2-methyl-4-thiazolyl)methyl]thio]thiazolo[4,5-d]pyrimidin-2(3H)-one] | 231 to 232 °C |
| C[C@H](CN)Nc1nc(SCc2cccc(Cl)c2F)nc2[nH]c(=O)sc12 [Example 25, 7-[[(1R)-2-Amino-1-methylethyl]amino]-5-[[(3-chloro-2-fluorophenyl)methyl]thio]thiazolo[4,5-d]pyrimidin-2(3H)-one] | 241 to 243 °C |

Now from value to compound:

| melting point | Structure (SMILES) |
| --- | --- |
| > 250 °C | COCC(CO)Nc1nc(SCc2cccc(F)c2F)nc2[nH]c(=O)sc12.[Na] (racemic) |
| 178 to 179 °C | O=c1[nH]c2nc(SCc3cccc(F)c3F)nc(NC(CO)CO)c2s1 [Example 7, 5-[[(2,3-difluorophenyl)methyl]thio]-7-[[2-hydroxy-1-(hydroxymethyl)ethyl]amino]thiazolo[4,5-d]pyrimidin-2(3H)-one] |
| 217 to 219 °C | O=c1[nH]c2nc(SCc3cccc(F)c3F)nc(NCCO)c2s1 [Example 9, 5-[[(2,3-difluorophenyl)methyl]thio]-7-[(2-hydroxyethyl)amino]thiazolo[4,5-d]pyrimidin-2(3H)-one] |
| 145 to 151 °C | NC(=O)[C@H](CO)Nc1nc(SCc2cccc(F)c2F)nc2[nH]c(=O)sc12 [Example 26, (2S)-2-[[5-[[(2,3-Difluorophenyl)methyl]thio]-2,3-dihydro-2-oxothiazolo[4,5-d]pyrimidin-7-yl]amino]-3-hydroxy-propanamide] |
